Measurements as given in US10328088B2, “Use of aminosalicylates in diarrhoea-predominent irritable bowel syndrome” (Salix Pharmaceuticals, Inc., priority 2004, dated 2019).

Key:
Type in all cases: in vivo, human
[1] = test system: diarrhoea predominant Irritable Bowel Syndrome; assay: Example 3: case of a person with diarrhoea predominant Irritable Bowel Syndrome treated with Salofalk granules, then balsalazide
[2] = test system: chronic IBS; assay: Example 2: case of a person with chronic IBS (diarrhoea with intervening constipation, diverticulosis) treated with balsalazide
Excerpt: A person complained of greater than 20 years of diarrhoea with intervening constipation, abdominal bloating, pains, flatulence, and nausea with acid reflux. They had undergone several complete medical investigations including stool tests, blood tests, X-ray imaging and colonoscopic examinations, with negative findings apart from the presence of diverticulosis. Diagnosed as chronic IBS they tried increasing fibre intake, controlling stress, and changing their diet, all to no avail. On commencing balsalazide 1.5 g/day and pushing the dose upwards to 4.5 g/d their diarrhoea, pains, flatulence and nausea abated. At the higher dose the constipation also disappeared.

[3] = test system: diarrhoea-predominant Irritable Bowel Syndrome; assay: Inventor's clinical experience in patients with diarrhoea-predominant IBS; settings: from clinical experience
Excerpt: Balsalazide is better than mesalazine (5-ASA) in controlling and may inhibit even more powerfully the symptoms of diarrhoea-predominant IBS and associated conditions enumerated below. This is unexpected. It was not expected that balsalazide would be capable of treating diarrhoea-predominant IBS as it is a very different molecule to the conventional 4ASA and 5ASA compounds. […] It is noted that the side chain together with the 5-ASA potentiates inhibition of gas production, cramping, fluid secretion, and mucus production. It appears the large side chain apart from the salicylate component is effective in treating diarrhoea. In addition, in a subgroup of patients the constipation component of IBS may respond to the same treatment.

[4] = test system: diarrhoea-predominant IBS; assay: Example 1: case of a person with severe diarrhoea-predominant IBS treated with balsalazide
Excerpt: A person presented with a 7 year history of worsening diarrhoea (watery 6-12/day), urgency, cramping lower abdominal pain and at times faecal incontinence. There was no clear preceding illness nor antibiotic usage. They underwent numerous investigations, beginning with general practitioners ordering stool cultures, blood tests, ultrasound and CT scan examinations. With the passage of time they noticed that some foods caused worsening of symptoms, and was told by a naturopath that they suffered from a ‘food allergy’. […] They consulted a gastroenterologist and underwent endoscopic small bowel biopsy—where coeliac disease was excluded histologically—and colonoscopy with biopsy and further stool cultures. All tests being non-diagnostic, they were told they had severe, diarrhoea-predominant IBS. They continued on the restricted diet, and was referred for counselling and hypnotherapy. Over the next 6-12 months they progressively lost weight with only modest control of their symptoms by the diet. Within 2 weeks of commencing increasing doses of balsalazide from 1.5 gram to 3 grams per day, the stools progressively formed up, with frequency reducing to 1-2 formed stools per day. […] By 6 weeks of treatment they regained 7 kg in weight.

[5] = balsalazide 1.5 gram to 3 grams per day

O=C(O)CCNC(=O)c1ccc(/N=N/c2ccc(O)c(C(=O)O)c2)cc1 [balsalazide, 5[(1E)-[4-[[(2-carboxyethyl)amino]carbonyl]phenyl]azo]-2-hydroxybenzoic acid]
improvement in symptoms ([1]; 750 mg twice daily slowly raised to 1.5 grams twice daily): dramatic | stool frequency ([1]; 3 grams twice daily): two | symptoms ([1]; 3 grams twice daily): largely disappeared | urgency or flatulence ([1]; 3 grams twice daily): without any urgency or flatulence | durability of improvements ([1]; at four months follow up): sustained | durability of improvements ([2]; at 26 weeks): remain sustained | constipation ([2]; at the higher dose (4.5 g/d)): disappeared | diarrhoea, pains, flatulence and nausea ([2]; balsalazide 1.5 g/day pushed upwards to 4.5 g/d): abated | suppression of symptoms of diarrhoea-predominant Irritable Bowel Syndrome compared with conventional 4ASA and 5ASA compounds [3]: much more powerful | pain [4, 5]: completely abolished | urgency [4, 5]: disappaeared | weight regained ([4]; by 6 weeks of treatment): 7 kg | symptom status at follow up ([4]; on balsalazide at 26 weeks): virtually completely symptom-free | stool frequency ([4]; within 2 weeks of increasing doses from 1.5 gram to 3 grams per day, baseline watery 6-12/day): 1-2 formed stools per day
